Measured values: patent US10052320B2, “Substituted quinoxalines as FGFR kinase inhibitors” (ASTEX THERAPEUTICS LIMITED, priority 2011, dated 2018)
Read-outs that look alike come from different tables or passages of the source.

How the values were obtained:
[1] = target: Ba/F3-FGFR4-transfected cells (Homo sapiens, UniProt P22455); assay: Ba/F3-FGFR4 cellular proliferation assay, Alamar Blue; type: cell-based
Description: Ba/F3-FGFR4 (Cellular Proliferation Assay)
(§1) In a 384 well plate, 100 nl of compound dilution in DMSO was sprayed before adding 50 μl cell culture medium (phenol red free RPMI-1640, 10% FBS, 2 mM L-Glutamine and 50 μg/ml Gentamycin) containing 20000 cells per well of Ba/F3-FGFR4-transfected cells. Cells were put in an incubator at 37° C. and 5% CO2. After 24 hours, 10 μl of Alamar Blue solution (0.5 mM K3Fe(CN)6, 0.5 mM KaFe(CN)6, 0.15 mM Resazurin and 100 mM Phosphate Buffer) was added to the wells, incubated for 4 hours at 37° C. and 5% CO2 before RFU's (Relative Fluorescence Units) (ex. 540 nm., em. 590 nm.) were measured in a flurorescence plate reader.

[2] = target: Ba/F3-KDR-transfected cells (Homo sapiens, UniProt P35968); assay: Ba/F3-KDR (minus IL3) cellular proliferation assay, Alamar Blue; type: cell-based
Summary of the method: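 Fluorescence (ex 540, em 590 nm) from resazurin reduction, read after 4 h with Alamar Blue, reports viability of Ba/F3-KDR cells after 24 h of compound treatment at 37 °C. Counterscreen wells also contained 10 ng/ml murine IL3.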

[3] = tested on: Ba/F3-Flt3-transfected cells in the presence of 10 ng/ml murine IL3; assay: Ba/F3-Flt3 (plus IL3) cellular proliferation counterscreen, Alamar Blue; type: cell-based; conditions: Mus musculus, read-out: BAF3-FLT3 (PLUS IL3) 96 well pIC50 (converted)
FGFR4 (h) = FGFR4 (h) (Homo sapiens, UniProt P22455); assay: FGFR4 (enzymatic assay), TR-FRET; type: biochemical; conditions: read-out: FGFR 4 pIC50 (converted)
Description: In a final reaction volume of 30 μL, FGFR4 (h) (60 ng/ml) was incubated with 50 mM HEPES pH 7.5, 6 mM MnCl2, 1 mM DTT, 0.1 mM Na3VO4, 0.01% Triton-X-100, 500 nM Btn-Flt3 and 5 μM ATP in the presence of compound (1% DMSO final). […] Time-Resolved Fluorescence Resonance Energy Transfer (TR-FRET) signal (ex340 nm. Em 620 nm, em 655 nm) was measured afterwards and results are expressed in RFU (Relative Fluorescence Units).

[4] = tested on: Ba/F3-KDR-transfected cells in the presence of 10 ng/ml murine IL3; assay: Ba/F3-KDR (plus IL3) cellular proliferation counterscreen, Alamar Blue; type: cell-based; conditions: Mus musculus; plus 10 ng/ml murine IL3; read-out: BAF3-KDR (PLUS IL3) 384 well pIC50 (converted)
Description: Ba/F3-KDR (Minus IL3 or Plus IL3) (Cellular Proliferation Assay)
[…] Cells were put in an incubator at 37° C. and 5% CO2. After 24 hours, 10 μl of Alamar Blue solution (0.5 mM K3Fe(CN)6, 0.5 mM KaFe(CN)6, 0.15 mM Resazurin and 100 mM Phosphate Buffer) was added to the wells, incubated for 4 hours at 37° C. and 5% CO2 before RFU's (Relative Fluorescence Units) (ex. 540 nm., em. 590 nm.) were measured in a flurorescence plate reader.
(§2) As a counterscreen the same experiment was performed in the presence of 10 ng/ml murine IL3.
as §1, with “a 96” for “a 384”, “plate, 180” for “plate, 100 nl of compound dilution in DMSO was sprayed before adding 50”, “containing 10000” for “containing 20000”, “of Ba/F3-KDR-transfected cells were pipette and 20 μl of compound dilution in DMSO was added.” for “of Ba/F3-FGFR4-transfected cells.”, “hours, 40” for “hours, 10”, “CO2” for “CO2 before”

[5] = tested on: Ba/F3-FGFR3-transfected cells in the presence of 10 ng/ml murine IL3; assay: Ba/F3-FGFR3 (plus IL3) cellular proliferation counterscreen, Alamar Blue; type: cell-based; conditions: Mus musculus; plus 10 ng/ml murine IL3; 384 well; read-out: BAF3-FGFR 3 (PLUS IL3) 384 well pIC50 (converted)
Description: Ba/F3-FGFR3 (Minus IL3 or Plus IL3) (Cellular Proliferation Assay)
as §1, with “Ba/F3-FGFR3-transfected” for “Ba/F3-FGFR4-transfected”
as §2
as §1, with “a 96” for “a 384”, “plate, 180” for “plate, 100 nl of compound dilution in DMSO was sprayed before adding 50”, “containing 10000” for “containing 20000”, “of Ba/F3-FGFR3-transfected cells were pipette and 20 μl of compound dilution in DMSO was added.” for “of Ba/F3-FGFR4-transfected cells.”, “hours, 40” for “hours, 10”

Chain of Ba/F3-FGFR4-transfected cells (P22455 whole entry, change not shown): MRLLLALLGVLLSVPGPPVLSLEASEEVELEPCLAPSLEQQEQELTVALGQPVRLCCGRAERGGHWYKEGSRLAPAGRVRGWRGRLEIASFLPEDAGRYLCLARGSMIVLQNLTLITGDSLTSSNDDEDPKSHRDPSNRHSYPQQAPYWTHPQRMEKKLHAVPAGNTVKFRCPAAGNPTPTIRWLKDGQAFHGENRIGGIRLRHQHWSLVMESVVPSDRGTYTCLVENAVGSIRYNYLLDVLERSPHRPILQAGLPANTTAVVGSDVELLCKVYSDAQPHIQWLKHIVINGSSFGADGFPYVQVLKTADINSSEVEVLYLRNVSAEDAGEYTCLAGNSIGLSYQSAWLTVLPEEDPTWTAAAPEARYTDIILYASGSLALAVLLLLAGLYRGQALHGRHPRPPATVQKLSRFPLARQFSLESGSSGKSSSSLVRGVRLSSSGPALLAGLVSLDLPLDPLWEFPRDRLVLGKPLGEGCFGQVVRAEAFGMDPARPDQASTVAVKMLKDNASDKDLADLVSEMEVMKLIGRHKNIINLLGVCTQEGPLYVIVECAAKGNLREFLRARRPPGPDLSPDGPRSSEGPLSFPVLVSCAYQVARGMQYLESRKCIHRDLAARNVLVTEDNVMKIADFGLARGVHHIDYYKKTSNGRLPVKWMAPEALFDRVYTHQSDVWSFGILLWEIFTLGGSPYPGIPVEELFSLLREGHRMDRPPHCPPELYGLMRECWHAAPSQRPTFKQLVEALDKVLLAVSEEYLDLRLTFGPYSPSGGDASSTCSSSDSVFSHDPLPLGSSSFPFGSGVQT
Chain of Ba/F3-KDR-transfected cells (P35968 whole entry, change not shown): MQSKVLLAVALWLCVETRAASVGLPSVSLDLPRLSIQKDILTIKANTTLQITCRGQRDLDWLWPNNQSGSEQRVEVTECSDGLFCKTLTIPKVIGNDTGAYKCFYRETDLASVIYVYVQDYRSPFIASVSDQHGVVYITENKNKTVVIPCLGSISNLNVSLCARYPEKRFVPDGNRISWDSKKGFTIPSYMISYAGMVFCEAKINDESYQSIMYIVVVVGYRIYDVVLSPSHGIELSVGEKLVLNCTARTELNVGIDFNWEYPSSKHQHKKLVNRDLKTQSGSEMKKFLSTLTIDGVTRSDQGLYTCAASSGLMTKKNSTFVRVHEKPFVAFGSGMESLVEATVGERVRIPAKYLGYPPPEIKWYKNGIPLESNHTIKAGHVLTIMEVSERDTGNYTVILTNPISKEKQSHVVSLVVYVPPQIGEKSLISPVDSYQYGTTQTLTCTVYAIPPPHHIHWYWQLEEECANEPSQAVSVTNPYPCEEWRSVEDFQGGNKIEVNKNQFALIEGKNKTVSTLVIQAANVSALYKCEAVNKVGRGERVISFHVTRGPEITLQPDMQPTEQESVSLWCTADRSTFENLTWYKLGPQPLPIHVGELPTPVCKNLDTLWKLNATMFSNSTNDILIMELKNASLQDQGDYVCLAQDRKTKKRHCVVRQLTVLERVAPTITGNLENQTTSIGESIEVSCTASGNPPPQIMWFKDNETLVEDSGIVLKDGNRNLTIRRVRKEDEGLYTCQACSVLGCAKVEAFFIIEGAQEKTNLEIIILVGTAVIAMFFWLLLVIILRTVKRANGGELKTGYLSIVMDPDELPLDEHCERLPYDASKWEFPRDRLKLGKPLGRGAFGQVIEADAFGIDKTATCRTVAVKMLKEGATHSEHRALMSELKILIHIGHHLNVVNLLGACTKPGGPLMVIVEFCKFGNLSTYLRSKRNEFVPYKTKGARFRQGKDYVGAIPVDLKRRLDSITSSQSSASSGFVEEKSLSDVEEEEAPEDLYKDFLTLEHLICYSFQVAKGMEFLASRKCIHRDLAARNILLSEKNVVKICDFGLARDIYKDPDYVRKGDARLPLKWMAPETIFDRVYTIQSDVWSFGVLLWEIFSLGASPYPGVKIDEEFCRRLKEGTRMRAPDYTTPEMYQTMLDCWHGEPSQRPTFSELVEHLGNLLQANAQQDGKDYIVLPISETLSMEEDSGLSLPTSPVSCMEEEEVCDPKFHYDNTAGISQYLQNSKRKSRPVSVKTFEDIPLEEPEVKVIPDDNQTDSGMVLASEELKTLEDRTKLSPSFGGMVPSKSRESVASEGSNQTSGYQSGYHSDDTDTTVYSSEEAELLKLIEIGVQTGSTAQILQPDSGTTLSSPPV
Chain of FGFR4 (h) (P22455 22-802): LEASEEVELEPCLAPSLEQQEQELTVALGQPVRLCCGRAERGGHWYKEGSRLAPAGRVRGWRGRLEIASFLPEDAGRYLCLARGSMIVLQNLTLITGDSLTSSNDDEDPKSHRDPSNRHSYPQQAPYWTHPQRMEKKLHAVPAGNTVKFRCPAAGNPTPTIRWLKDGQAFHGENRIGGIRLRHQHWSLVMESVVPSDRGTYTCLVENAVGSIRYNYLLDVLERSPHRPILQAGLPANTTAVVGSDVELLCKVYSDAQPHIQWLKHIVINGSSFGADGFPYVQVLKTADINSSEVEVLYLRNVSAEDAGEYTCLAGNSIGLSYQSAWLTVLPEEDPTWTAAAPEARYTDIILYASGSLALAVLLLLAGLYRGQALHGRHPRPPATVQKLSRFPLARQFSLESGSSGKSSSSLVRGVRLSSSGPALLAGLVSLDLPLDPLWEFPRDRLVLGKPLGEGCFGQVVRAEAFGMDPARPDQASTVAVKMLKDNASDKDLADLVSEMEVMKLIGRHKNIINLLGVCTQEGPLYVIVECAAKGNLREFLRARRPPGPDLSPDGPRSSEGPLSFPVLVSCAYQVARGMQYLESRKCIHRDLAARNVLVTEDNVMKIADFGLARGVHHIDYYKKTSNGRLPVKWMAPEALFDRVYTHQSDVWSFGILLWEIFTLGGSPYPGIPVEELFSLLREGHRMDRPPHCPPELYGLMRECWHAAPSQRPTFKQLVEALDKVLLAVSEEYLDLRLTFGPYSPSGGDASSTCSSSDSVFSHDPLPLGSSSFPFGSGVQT

BAF3-FGFR4 pIC50 ([1]; 384 well) | BAF3-KDR (MIN IL3) 384 well pIC50 ([2]; minus IL3, 384 well) | IC50 (FGFR4 (h)) [µM] | BAF3-FGFR4 pIC50 [1] | BAF3-KDR (MIN IL3) 384 well pIC50 ([2]; minus IL3) | SMILES | IC50 ([3]; plus IL3, 96 well) [µM] | IC50 ([3]; plus 10 ng/ml murine IL3) [µM] | IC50 [4] [µM] | IC50 [5] [µM]
<5 | <5 | 0.275 | – | – | COc1cc(OC)cc(N(CC2CC2)c2ccc3ncc(C#Cc4cncn4C)nc3c2)c1 [Compound 22] | > 10 | – | – | –
– | – | > 10 | <5 | <5 | COc1cc(OC)cc(N(CC2CC2)c2ccc3ncc(C(=O)Nc4cncn4C)nc3c2)c1 [Compound 27] | – | > 10 | – | –
5.3 | <5 | 0.302 | – | – | COc1cc(OC)cc(N(CC2CC2)c2ccc3ncc(-c4ccnc(N5CCN(C)CC5)c4)nc3c2)c1 [Compound 37] | ~4.68 | – | – | –
– | – | 1.58 | <5 | <5 | COc1cc(OC)cc(N(CC2CC2)c2ccc3ncc(N4CCN(CCO)CC4)nc3c2)c1 [Compound 49] | – | > 10 | – | –
<5 | <5 | 2.88 | – | – | COc1cc(OC)cc(N(CC2CC2)c2ccc3ncc(N4CCN(C)CC4)nc3c2)c1 [Compound 64] | > 10 | – | – | –
<5 | <5 | 1.48 | – | – | COc1cc(OC)cc(N(CC2CC2)c2ccc3ncc(-c4nnc(C)o4)nc3c2)c1 [Compound 85] | > 10 | – | – | –
<5 | <5 | 3.98 | – | – | COc1cc(OC)cc(N(CC2CC2)c2ccc3ncc(-c4ccc5[nH]ccc5c4)nc3c2)c1 [Compound 86] | > 10 | – | – | –
<5 | <5 | > 10 | – | – | COc1cc(OC)cc(N(CC2CC2)c2ccc3ncc(-c4cnc5[nH]ccc5c4)nc3c2)c1 [Compound 88] | > 10 | – | – | –
– | – | 2.4 | <5 | <5 | COc1cc(OC)cc(N(CC2CC2)c2ccc3ncc(-c4cccc(N5CCOCC5)c4)nc3c2)c1 [Compound 92] | – | > 10 | – | –
– | – | 0.0288 | 6.2 | <5 | COc1cc(OC)cc(N(CCNC(C)C)c2ccc3ncc(-c4ccc(N5CCN(C)CC5)nc4)nc3c2)c1 [Compound 170] | – | – | > 10 | 9.77
– | – | 0.871 | <5 | <5 | COc1cc(OC)cc(N(CCO)c2ccc3ncc(/C(C)=N/OC(C)(C)C)nc3c2)c1 [Compound 171] | – | – | > 10 | > 10
– | – | 0.417 | 5.1 | <5 | COC(=O)C1CCCN1c1cnc2ccc(N(CCO)c3cc(OC)cc(OC)c3)cc2n1 (stereo not drawn) [Compound 172] | – | – | > 10 | > 10
– | – | 0.1 | 5.6 | <5 | COc1cc(OC)cc(N(CCO)c2ccc3ncc(C4=CCN(C(=O)OC(C)(C)C)C4)nc3c2)c1 [Compound 173] | – | – | > 10 | > 10
– | – | 0.0562 | 5.9 | <5 | COc1cc(OC)cc(N(CCO)c2ccc3ncc(C4=CCN(C(=O)OC(C)(C)C)CC4)nc3c2)c1 [Compound 178] | – | – | > 10 | > 10
– | – | > 1 | <5 | <5 | COc1cc(OC)cc(N(CCNC(C)C)c2ccc3ncc(C(=O)N4CCN(C)CC4)nc3c2)c1 [Compound 179] | – | – | > 10 | > 10
– | – | 0.977 | 5.2 | <5 | COc1cc(OC)cc(N(CCNC(C)C)c2ccc3ncc(C(=O)N4CCCCC4)nc3c2)c1 [Compound 180] | – | – | > 10 | > 10
– | – | > 1 | <5 | <5 | COc1cc(OC)cc(N(CCNC(C)C)c2ccc3ncc(C(=O)N4CCOCC4)nc3c2)c1 [Compound 181] | – | – | > 10 | > 10
– | – | 0.603 | 5.7 | <5 | COc1cc(OC)cc(N(CCNC(C)C)c2ccc3ncc(C(=O)NCCCN4CCCCC4)nc3c2)c1 [Compound 182] | – | – | > 10 | ~6.92
– | – | 0.427 | ~6.5 | <5 | COc1cc(OC)cc(N(CC#Cc2ncccc2OC)c2ccc3ncc(-c4cccnc4)nc3c2)c1 [Compound 183] | – | – | > 10 | > 10
– | – | 0.309 | 5.1 | <5 | COc1cc(OC)cc(N(CCO)c2ccc3ncc(C(=O)Nc4cnn(C)c4)nc3c2)c1 [Compound 184] | – | – | > 10 | > 10
– | – | > 1 | <5 | <5 | COc1cc(OC)cc(N(CCO)c2ccc3ncc(C4CCN(C(=O)OC(C)(C)C)CC4)nc3c2)c1 [Compound 185] | – | – | > 10 | > 10
– | – | 0.126 | 5.57 | <5 | COc1cc(OC)cc(N(CCCO)c2ccc3ncc(-c4ccnc(C(=O)NCCOCCO)c4)nc3c2)c1 [Compound 186] | – | – | > 10 | > 10
– | – | 0.0708 | 6.05 | 5.14 | COc1cc(OC)cc(N(CCNC(C)C)c2ccc3ncc(-c4ccnn4C4CCCCO4)nc3c2)c1 (stereo not drawn) [Compound 188] | – | – | > 10 | > 10
– | – | 0.00724 | 6.23 | 5.14 | COc1cc(OC)cc(N(CCNC(C)C)c2ccc3ncc(-c4ccn[nH]4)nc3c2)c1 [Compound 189] | – | – | > 10 | > 10
